Measured values published in patent publication US20260053811A1, “METHODS OF TREATING HYPERTENSION IN OBESE SUBJECTS” (Mineralys Therapeutics, Inc., priority 2022, published 2026).

System: hypertensive subjects
Test: Seated automated office blood pressure (AOBP) in randomized, placebo-controlled, dose-ranging study
Format: in vivo, human
Details: Part 1
Protocol: A randomized, double-blinded, placebo-controlled, dose-ranging, multicenter study was conducted to evaluate the effect of orally administered Compound A HBr on blood pressure for the treatment of hypertension in male and female subjects ≥18 years of age.
The study consists of two parts. For enrollment into Part 1 of the study, a subject's value of plasma renin activity (PRA) must be ≤1 ng/mL/h based on morning measurement. If the value of PRA >1 ng/mL/h based on morning measurement, then subjects may be eligible to enter Part 2 of the study.
For Part 1, 163 enrolled subjects ≥18 years of age were randomized into 6 equal treatment groups (1:1:1:1:1:1) to 12.5 mg BID, 25 mg BID, 12.5 mg QD, 50 mg QD, 100 mg QD, or placebo. After a review of interim clinical data, the 2 lowest dose levels (12.5 mg QD and 12.5 mg BID) were stopped for future randomization due to a lack of consistent meaningful reduction of blood pressure, but the patients randomized to that point remained in the study through completion. Thus, after the review of interim clinical data, subjects were randomized into 4 equal treatment groups (1:1:1:1) to 25 mg BID, 50 mg QD, 100 mg QD, or placebo.
For Part 2, 36 enrolled subjects ≥18 years of age were randomized (5:1) to either 100 mg QD Compound A HBr or placebo such that the Compound A HBr treatment group consisted of approximately 30 subjects and the placebo treatment group will consist of approximately 6 subjects.
Subjects orally administered the assigned study drug (Compound A HBr or placebo) according to the assigned dosing regimen for 8 weeks beginning on Study Day 1. All subjects in Part 1 (regardless of dosing group) received BID dosing to preserve the integrity of the blind; active drug is administered as the morning dose for all QD dose groups. Subjects returned to the research facility or were seen by the clinical investigator or approved home health care professional at the end of Study Weeks 1, 2, 3, 4, 5, 6, 7, and 8 (±2 days) for protocol-defined efficacy and safety assessments and procedures, assessment of adverse events (AEs), and confirmation of compliance with study drug usage. Subjects also completed a telephone visit and blood pressure (BP) check at home approximately 3 days post last dose of study drug. Subjects attended up to 14 full clinic visits, including a pre-Screening visit, a Screening/start of Placebo Run-in visit, a second visit during Placebo Run-in, a clinic visit to initiate the ABPM procedure, a Randomization visit, 8 weekly visits during double-blind treatment, and an end-of-study visit scheduled 4 weeks after the last study treatment for final efficacy and safety assessments.
An automated oscillometric sphygmomanometer device was used to measure the subjects' systolic and diastolic blood pressure in office after approximately 5 minutes of rest in the seated position.
The primary endpoint is the change in office-measured (mean of last 2 of 5 unattended measurements using an automated oscillometric sphygmomanometer device after approximately 5 minutes of rest in the seated position) systolic blood pressure (SBP) from baseline to the end of Study Week 8.
Secondary endpoints of this study were: • (a) Change in 24-hour ambulatory blood pressure monitoring (ABPM) parameters (systolic and diastolic) from baseline to the end of Study Week 7. • (b) Change in office-measured SBP from baseline to the end of Study Weeks 1, 2, 3, 4, 5, 6, and 7. • (c) Change in office-measured diastolic blood pressure (DBP) from baseline to the end of Study Weeks 1, 2, 3, 4, 5, 6, 7, and 8. • (d) Proportion of subjects who achieve office-measured BP of ≤130/80 mm Hg by the end of Study Week 8.

[1] = 25 mg BID, BMI at baseline 25-30 kg/m^2
[2] = 25 mg BID, BMI at baseline <25 kg/m^2
[3] = 25 mg BID, BMI at baseline >30 kg/m^2
[4] = 25 mg BID, Seated SBP Tertile High
[5] = 25 mg BID, Seated SBP Tertile Low
[6] = 25 mg BID, Seated SBP Tertile Middle
[7] = 25 mg BID, Systolic Blood Pressure Tertile at Baseline High
[8] = 25 mg BID, Systolic Blood Pressure Tertile at Baseline Low
[9] = 25 mg BID, Systolic Blood Pressure Tertile at Baseline Middle
[10] = 25 mg BID, Thiazide Diuretic Use at Baseline No
[11] = 25 mg BID, Thiazide Diuretic Use at Baseline Yes

Structure (SMILES): CC(=O)N[C@H]1CC[C@H](NC(=O)CN2CCN(c3nncc(-c4ccc(C)cc4)n3)CC2)CC1 [Compound A HBr]
- Mean (SD) Change from Baseline at Week 8 in Automated Office-Measured Diastolic Blood Pressure (25 mg BID, BMI >30 kg/m^2): −5.33 (8.88) mmHg
- Mean (SD) Automated Office-Measured Systolic Blood Pressure at Wk 8 [1]: 134.11 (15.72) mmHg
- Mean (SD) Change from Baseline at Week 8 in Automated Office-Measured Systolic Blood Pressure [1]: −4.89 (13.17) mmHg
- Mean (SD) Automated Office-Measured Systolic Blood Pressure at Wk 8 [2]: 126.25 (18.52) mmHg
- Mean (SD) Change from Baseline at Week 8 in Automated Office-Measured Systolic Blood Pressure [2]: −18.13 (15.56) mmHg
- Mean (SD) Automated Office-Measured Systolic Blood Pressure at Wk 8 [3]: 130.93 (17.43) mmHg
- Mean (SD) Change from Baseline at Week 8 in Automated Office-Measured Systolic Blood Pressure [3]: −11.13 (13.83) mmHg
- Mean (SD) Automated Office-Measured Diastolic Blood Pressure at Wk 8 (25 mg BID, Race Black or AA): 75.43 (10.05) mmHg
- Mean (SD) Automated Office-Measured Systolic Blood Pressure at Wk 8 (25 mg BID, Race Black or AA): 124.00 (15.68) mmHg
- Mean (SD) Change from Baseline at Week 8 in Automated Office-Measured Diastolic Blood Pressure (25 mg BID, Race Black or AA): −7.79 (9.03) mmHg
- Mean (SD) Change from Baseline at Week 8 in Automated Office-Measured Systolic Blood Pressure (25 mg BID, Race Black or AA): −13.29 (15.91) mmHg
- Mean (SD) Automated Office-Measured Diastolic Blood Pressure at Wk 8 (25 mg BID, Race Other): 75.43 (14.14) mmHg
- Mean (SD) Automated Office-Measured Systolic Blood Pressure at Wk 8 (25 mg BID, Race Other): 133.71 (16.53) mmHg
- Mean (SD) Change from Baseline at Week 8 in Automated Office-Measured Diastolic Blood Pressure (25 mg BID, Race Other): −2.31 (12.36) mmHg
- Mean (SD) Change from Baseline at Week 8 in Automated Office-Measured Systolic Blood Pressure (25 mg BID, Race Other): −9.07 (13.59) mmHg
- Mean (SD) Automated Office-Measured Diastolic Blood Pressure at Wk 8 [4]: 74.00 (7.39) mmHg
- Mean (SD) Change from Baseline at Week 8 in Automated Office-Measured Diastolic Blood Pressure [4]: −7.36 (5.62) mmHg
- Mean (SD) Automated Office-Measured Diastolic Blood Pressure at Wk 8 [5]: 72.40 (9.55) mmHg
- Mean (SD) Change from Baseline at Week 8 in Automated Office-Measured Diastolic Blood Pressure [5]: −6.15 (8.84) mmHg
- Mean (SD) Automated Office-Measured Diastolic Blood Pressure at Wk 8 [6]: 79.09 (17.89) mmHg
- Mean (SD) Change from Baseline at Week 8 in Automated Office-Measured Diastolic Blood Pressure [6]: 0.91 (15.57) mmHg
- Mean (SD) Automated Office-Measured Diastolic Blood Pressure at Wk 8 (25 mg BID, Sex Female): 77.12 (15.02) mmHg
- Mean (SD) Automated Office-Measured Systolic Blood Pressure at Wk 8 (25 mg BID, Sex Female): 132.88 (16.99) mmHg
- Mean (SD) Change from Baseline at Week 8 in Automated Office-Measured Diastolic Blood Pressure (25 mg BID, Sex Female): −2.41 (13.79) mmHg
- Mean (SD) Change from Baseline at Week 8 in Automated Office-Measured Systolic Blood Pressure (25 mg BID, Sex Female): −10.62 (14.75) mmHg
- Mean (SD) Automated Office-Measured Diastolic Blood Pressure at Wk 8 (25 mg BID, Sex Male): 72.82 (9.34) mmHg
- Mean (SD) Automated Office-Measured Systolic Blood Pressure at Wk 8 (25 mg BID, Sex Male): 128.82 (16.45) mmHg
- Mean (SD) Change from Baseline at Week 8 in Automated Office-Measured Diastolic Blood Pressure (25 mg BID, Sex Male): −5.64 (7.70) mmHg
- Mean (SD) Change from Baseline at Week 8 in Automated Office-Measured Systolic Blood Pressure (25 mg BID, Sex Male): −9.36 (13.49) mmHg
- Mean (SD) Automated Office-Measured Systolic Blood Pressure at Wk 8 [7]: 139.86 (16.99) mmHg
- Mean (SD) Change from Baseline at Week 8 in Automated Office-Measured Systolic Blood Pressure [7]: −14.14 (13.63) mmHg
- Mean (SD) Automated Office-Measured Systolic Blood Pressure at Wk 8 [8]: 120.70 (13.06) mmHg
- Mean (SD) Change from Baseline at Week 8 in Automated Office-Measured Systolic Blood Pressure [8]: −12.50 (13.48) mmHg
- Mean (SD) Automated Office-Measured Systolic Blood Pressure at Wk 8 [9]: 135.45 (15.29) mmHg
- Mean (SD) Change from Baseline at Week 8 in Automated Office-Measured Systolic Blood Pressure [9]: −5.41 (14.64) mmHg
- Automated Office-Measured Diastolic Blood Pressure, Week 8, Mean (SD) [10]: 74.36 (8.31) mmHg
- Mean (SD) Automated Office-Measured Systolic Blood Pressure at Wk 8 [10]: 132.45 (15.21) mmHg
- Mean (SD) Change from Baseline at Week 8 in Automated Office-Measured Diastolic Blood Pressure [10]: −6.09 (7.34) mmHg
- Mean (SD) Change from Baseline at Week 8 in Automated Office-Measured Systolic Blood Pressure [10]: −9.32 (14.08) mmHg
- Automated Office-Measured Diastolic Blood Pressure, Week 8, Mean (SD) [11]: 76.12 (15.60) mmHg
- Mean (SD) Automated Office-Measured Systolic Blood Pressure at Wk 8 [11]: 130.53 (17.84) mmHg
- Mean (SD) Change from Baseline at Week 8 in Automated Office-Measured Diastolic Blood Pressure [11]: −2.12 (13.83) mmHg
- Mean (SD) Change from Baseline at Week 8 in Automated Office-Measured Systolic Blood Pressure [11]: −10.65 (14.39) mmHg
- Mean (SD) Automated Office-Measured Systolic Blood Pressure at Wk 8 (50 mg QD, ACEi/ARB No): 131.13 (13.27) mmHg
- Mean (SD) Change from Baseline at Week 8 in Automated Office-Measured Systolic Blood Pressure (50 mg QD, ACEi/ARB No): −6.75 (15.62) mmHg
- Mean (SD) Automated Office-Measured Systolic Blood Pressure at Wk 8 (50 mg QD, ACEi/ARB Yes): 127.65 (14.07) mmHg
